# According to PubChem BioAssay (NCI):
#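 Method: 48-hour compound exposure of cells in 96-well plates, five concentrations, linear interpolation of endpoints. At the GI50, growth is halved. Definition used: TGI = concentration required for complete inhibition of growth.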
# How the values were obtained:
# Assay in all cases: growth of human tumour cells (NCI), 48 h
# [1] = tested on: EKVX NSCLC
# [2] = tested on: U251 CNS
# [3] = tested on: COLO 205 colon
# [4] = tested on: OVCAR-4 ovarian
# [5] = tested on: MDA-MB-435
# [6] = tested on: OVCAR-3 ovarian
# [7] = tested on: NCI-H23 lung
# [8] = tested on: SNB-75 CNS
# [9] = tested on: OVCAR-8 ovarian
# [10] = tested on: SN12C renal
# [11] = tested on: HCC-2998 colon
# [12] = tested on: DU-145 prostate
# [13] = tested on: SF-539 CNS
# [14] = tested on: 786-0 renal
# [15] = tested on: CCRF-CEM leukemia
# [16] = tested on: RXF 393 renal
# [17] = tested on: KM12 colon
# [18] = tested on: SK-MEL-2 melanoma
# [19] = tested on: HCT-116 colon
# [20] = tested on: MDA-MB-231 breast
# [21] = tested on: PC-3 prostate
# [22] = tested on: HOP-62 NSCLC
# [23] = tested on: NCI-H460 lung
# [24] = tested on: IGROV1 ovarian
# [25] = tested on: UO-31 renal
# [26] = tested on: UACC-257 melanoma
# [27] = tested on: K-562 leukemia
# [28] = tested on: RPMI-8226 leukemia
# [29] = tested on: NCI-H522 lung
# [30] = tested on: T-47D breast
# [31] = tested on: TK-10 renal
# [32] = tested on: SK-OV-3 ovarian
# [33] = tested on: A498 renal
# [34] = tested on: ACHN renal
# [35] = tested on: OVCAR-5 ovarian
# [36] = tested on: MOLT-4 leukemia
# [37] = tested on: HCT-15 colon
# [38] = tested on: SNB-19 CNS
# [39] = tested on: LOX IMVI melanoma
# [40] = tested on: UACC-62 melanoma
# [41] = tested on: HT29 colon
# [42] = tested on: SF-295 CNS
# [43] = tested on: NCI-H226 lung
# [44] = tested on: SW-620 colon
# [45] = tested on: A549 NSCLC
# [46] = tested on: SF-268 CNS
# [47] = tested on: CAKI-1 renal
# [48] = tested on: MCF7 breast
# [49] = tested on: M14 melanoma
# [50] = tested on: BT-549 breast
# [51] = tested on: HS 578T breast
# [52] = tested on: SK-MEL-5 melanoma
# [53] = tested on: SK-MEL-28 melanoma
# [54] = tested on: SR leukemia
# [55] = tested on: HOP-92 NSCLC
# [56] = tested on: MALME-3M melanoma
# [57] = tested on: NCI/ADR-RES ovarian
# [58] = tested on: HL-60(TB) leukemia
compound,measurement,setting,value
Nc1c([N+](=O)[O-])ncn1C1OC(CO)C(O)C1O (configuration not stated),GI50,[1],> 100 µM
same,TGI,[1],> 100 µM
same,GI50,[2],> 100 µM
same,TGI,[2],> 100 µM
same,GI50,[3],> 100 µM
same,TGI,[3],> 100 µM
same,GI50,[4],> 100 µM
same,TGI,[4],> 100 µM
same,GI50,[5],> 100 µM
same,TGI,[5],> 100 µM
same,GI50,[6],> 100 µM
same,TGI,[6],> 100 µM
same,GI50,[7],> 100 µM
same,TGI,[7],> 100 µM
same,GI50,[8],> 100 µM
same,TGI,[8],> 100 µM
same,GI50,[9],> 100 µM
same,TGI,[9],> 100 µM
same,GI50,[10],> 100 µM
same,TGI,[10],> 100 µM
same,GI50,[11],> 100 µM
same,TGI,[11],> 100 µM
same,GI50,[12],> 100 µM
same,TGI,[12],> 100 µM
same,GI50,[13],> 100 µM
same,TGI,[13],> 100 µM
same,GI50,[14],> 100 µM
same,TGI,[14],> 100 µM
same,GI50,[15],> 100 µM
same,TGI,[15],> 100 µM
same,GI50,[16],> 100 µM
same,TGI,[16],> 100 µM
same,GI50,[17],> 100 µM
same,TGI,[17],> 100 µM
same,GI50,[18],> 100 µM
same,TGI,[18],> 100 µM
same,GI50,[19],> 100 µM
same,TGI,[19],> 100 µM
same,GI50,[20],> 100 µM
same,TGI,[20],> 100 µM
same,GI50,[21],> 100 µM
same,TGI,[21],> 100 µM
same,GI50,[22],> 100 µM
same,TGI,[22],> 100 µM
same,GI50,[23],> 100 µM
same,TGI,[23],> 100 µM
same,GI50,[24],> 100 µM
same,TGI,[24],> 100 µM
same,GI50,[25],> 100 µM
same,TGI,[25],> 100 µM
same,GI50,[26],> 100 µM
same,TGI,[26],> 100 µM
same,GI50,[27],> 100 µM
same,TGI,[27],> 100 µM
same,GI50,[28],> 100 µM
same,TGI,[28],> 100 µM
same,GI50,[29],> 100 µM
same,TGI,[29],> 100 µM
same,GI50,[30],> 100 µM
same,TGI,[30],> 100 µM
same,GI50,[31],> 100 µM
same,TGI,[31],> 100 µM
same,GI50,[32],> 100 µM
same,TGI,[32],> 100 µM
same,GI50,[33],> 100 µM
same,TGI,[33],> 100 µM
same,GI50,[34],> 100 µM
same,TGI,[34],> 100 µM
same,GI50,[35],> 100 µM
same,TGI,[35],> 100 µM
same,GI50,[36],> 100 µM
same,TGI,[36],> 100 µM
same,GI50,[37],> 100 µM
same,TGI,[37],> 100 µM
same,GI50,[38],> 100 µM
same,TGI,[38],> 100 µM
same,GI50,[39],> 100 µM
same,TGI,[39],> 100 µM
same,GI50,[40],> 100 µM
same,TGI,[40],> 100 µM
same,GI50,[41],> 100 µM
same,TGI,[41],> 100 µM
same,GI50,[42],> 100 µM
same,TGI,[42],> 100 µM
same,GI50,[43],> 100 µM
same,TGI,[43],> 100 µM
same,GI50,[44],> 100 µM
same,TGI,[44],> 100 µM
same,GI50,[45],> 100 µM
same,TGI,[45],> 100 µM
same,GI50,[46],> 100 µM
same,TGI,[46],> 100 µM
same,GI50,[47],> 100 µM
same,TGI,[47],> 100 µM
same,GI50,[48],> 100 µM
same,TGI,[48],> 100 µM
same,GI50,[49],> 100 µM
same,TGI,[49],> 100 µM
same,GI50,[50],> 100 µM
same,TGI,[50],> 100 µM
same,GI50,[51],> 100 µM
same,TGI,[51],> 100 µM
same,GI50,[52],> 100 µM
same,TGI,[52],> 100 µM
same,GI50,[53],> 100 µM
same,TGI,[53],> 100 µM
c1ccc2c(c1)ccc1cc3cc(NCCCCNc4ccc5nc6c(ccc7ccccc76)cc5c4)ccc3nc12,TGI,[2],0.374 µM
same,TGI,[5],3.45 µM
same,TGI,[6],4.06 µM
same,TGI,[54],0.043 µM
same,TGI,[55],4.09 µM
same,TGI,[9],0.303 µM
same,TGI,[10],2.7 µM
same,TGI,[12],2.67 µM
same,TGI,[13],2.88 µM
same,TGI,[15],2.29 µM
same,TGI,[17],0.532 µM
same,TGI,[20],0.348 µM
same,TGI,[21],2.67 µM
same,TGI,[23],0.53 µM
same,TGI,[24],2.99 µM
same,TGI,[26],3.11 µM
same,TGI,[27],3.55 µM
same,TGI,[28],1.48 µM
same,TGI,[31],3.18 µM
same,TGI,[32],6.34 µM
same,TGI,[33],2.43 µM
same,TGI,[34],2.68 µM
same,TGI,[36],0.418 µM
same,TGI,[37],2.01 µM
same,TGI,[39],3.43 µM
same,TGI,[40],3.04 µM
same,TGI,[56],3.16 µM
same,TGI,[42],3.03 µM
same,TGI,[43],3.24 µM
same,TGI,[44],0.405 µM
same,TGI,[45],2.84 µM
same,TGI,[47],3.54 µM
same,TGI,[49],3.29 µM
same,TGI,[50],4.06 µM
same,TGI,[51],4.25 µM
same,TGI,[52],2.67 µM
COc1cc(C2C3=C(NC(=O)C2C#N)c2ccc4ccccc4c2OCC3)cc(OC)c1OC (configuration not stated),TGI,[57],> 100 µM
same,TGI,[1],> 100 µM
same,TGI,[2],30.4 µM
same,TGI,[3],33.1 µM
same,TGI,[4],> 100 µM
same,TGI,[5],> 100 µM
same,TGI,[6],> 100 µM
same,TGI,[7],> 100 µM
same,TGI,[8],34.5 µM
same,TGI,[55],29.7 µM
same,TGI,[9],> 100 µM
same,TGI,[10],38.9 µM
same,TGI,[11],65.2 µM
same,TGI,[12],> 100 µM
same,TGI,[13],42.3 µM
same,TGI,[14],> 100 µM
same,TGI,[15],> 100 µM
same,TGI,[16],32.9 µM
same,TGI,[17],> 100 µM
same,TGI,[18],59.4 µM
same,TGI,[19],29.1 µM
same,TGI,[21],> 100 µM
same,TGI,[22],50.5 µM
same,TGI,[23],> 100 µM
same,TGI,[24],36.9 µM
same,TGI,[25],28.3 µM
same,TGI,[26],> 100 µM
same,TGI,[27],> 100 µM
same,TGI,[28],> 100 µM
same,TGI,[29],> 100 µM
same,TGI,[30],62.5 µM
same,TGI,[31],> 100 µM
same,TGI,[32],62.4 µM
same,TGI,[33],44 µM
same,TGI,[34],30.2 µM
same,TGI,[35],42.3 µM
same,TGI,[36],> 100 µM
same,TGI,[37],> 100 µM
same,TGI,[58],> 100 µM
same,TGI,[38],> 100 µM
same,TGI,[41],> 100 µM
same,TGI,[56],72.5 µM
same,TGI,[42],> 100 µM
same,TGI,[44],> 100 µM
same,TGI,[45],> 100 µM
same,TGI,[46],64.1 µM
same,TGI,[47],45.7 µM
same,TGI,[48],> 100 µM
same,TGI,[49],> 100 µM
same,TGI,[50],42.9 µM
same,TGI,[51],68.1 µM
same,TGI,[52],> 100 µM
same,TGI,[53],> 100 µM
Cc1cc(C)n(C(=CC(=O)C(Cl)Cl)n2nc(C)cc2C)n1,TGI,[57],10.7 µM
same,TGI,[2],20.4 µM
same,TGI,[3],40 µM
same,TGI,[4],> 100 µM
same,TGI,[5],11 µM
same,TGI,[6],16.1 µM
same,TGI,[7],13.2 µM
same,TGI,[8],> 100 µM
same,TGI,[54],5.69 µM
same,TGI,[55],24.2 µM
same,TGI,[9],21.3 µM
same,TGI,[12],23 µM
same,TGI,[13],14.1 µM
same,TGI,[14],10 µM
same,TGI,[15],4.46 µM
same,TGI,[17],24 µM
same,TGI,[18],25.7 µM
same,TGI,[19],6.81 µM
same,TGI,[20],12.3 µM
same,TGI,[21],29.5 µM
same,TGI,[22],17.5 µM
same,TGI,[23],34.1 µM
same,TGI,[24],30.4 µM
same,TGI,[25],27.6 µM
same,TGI,[26],4.97 µM
same,TGI,[27],7.42 µM
same,TGI,[28],3.69 µM
same,TGI,[29],7.76 µM
same,TGI,[30],28.6 µM
same,TGI,[31],15.1 µM
same,TGI,[32],> 100 µM
same,TGI,[33],> 100 µM
same,TGI,[34],22.3 µM
same,TGI,[35],14.5 µM
same,TGI,[36],0.806 µM
same,TGI,[37],10.7 µM
same,TGI,[58],18.1 µM
same,TGI,[38],41.3 µM
same,TGI,[39],3.67 µM
same,TGI,[40],7.84 µM
same,TGI,[56],15.7 µM
same,TGI,[42],31.7 µM
same,TGI,[43],2.56 µM
same,TGI,[44],40.6 µM
same,TGI,[45],67 µM
same,TGI,[46],> 100 µM
same,TGI,[47],19.1 µM
same,TGI,[48],> 100 µM
same,TGI,[49],13.3 µM
same,TGI,[50],16.1 µM
same,TGI,[51],> 100 µM
same,TGI,[52],20.3 µM
